Laboratory results: patent US10975084B2, “KDM5 inhibitors” (Merck Sharp & Dohme Corp., priority 2016, dated 2021)

Molecular target: KDM5B (Homo sapiens (Human), UniProt Q9UGL1)
Assay: KDM5B TR-FRET Enzyme Activity Assay
Format: biochemical
Details: LANCE TR-FRET; 5 nM full-length recombinant KDM5B; ten point titration 100000 nM to 5.08 nM
Procedure, shortened: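 Full-length KDM5B from Sf21 cells (5 nM) was preincubated 30 min with compound in HEPES pH 7.3 buffer with ascorbate and 2 μM Fe(II). Reaction with 500 nM biotinylated H3K4Me3 peptide and 500 nM α-ketoglutarate ran 60 min. Product was detected by TR-FRET (Eu-anti-H3K4Me1-2/streptavidin-Dylight 650, 665/615 ratio); IC50 came from a 4-parameter fit.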

Sequence of KDM5B (Q9UGL1 whole entry): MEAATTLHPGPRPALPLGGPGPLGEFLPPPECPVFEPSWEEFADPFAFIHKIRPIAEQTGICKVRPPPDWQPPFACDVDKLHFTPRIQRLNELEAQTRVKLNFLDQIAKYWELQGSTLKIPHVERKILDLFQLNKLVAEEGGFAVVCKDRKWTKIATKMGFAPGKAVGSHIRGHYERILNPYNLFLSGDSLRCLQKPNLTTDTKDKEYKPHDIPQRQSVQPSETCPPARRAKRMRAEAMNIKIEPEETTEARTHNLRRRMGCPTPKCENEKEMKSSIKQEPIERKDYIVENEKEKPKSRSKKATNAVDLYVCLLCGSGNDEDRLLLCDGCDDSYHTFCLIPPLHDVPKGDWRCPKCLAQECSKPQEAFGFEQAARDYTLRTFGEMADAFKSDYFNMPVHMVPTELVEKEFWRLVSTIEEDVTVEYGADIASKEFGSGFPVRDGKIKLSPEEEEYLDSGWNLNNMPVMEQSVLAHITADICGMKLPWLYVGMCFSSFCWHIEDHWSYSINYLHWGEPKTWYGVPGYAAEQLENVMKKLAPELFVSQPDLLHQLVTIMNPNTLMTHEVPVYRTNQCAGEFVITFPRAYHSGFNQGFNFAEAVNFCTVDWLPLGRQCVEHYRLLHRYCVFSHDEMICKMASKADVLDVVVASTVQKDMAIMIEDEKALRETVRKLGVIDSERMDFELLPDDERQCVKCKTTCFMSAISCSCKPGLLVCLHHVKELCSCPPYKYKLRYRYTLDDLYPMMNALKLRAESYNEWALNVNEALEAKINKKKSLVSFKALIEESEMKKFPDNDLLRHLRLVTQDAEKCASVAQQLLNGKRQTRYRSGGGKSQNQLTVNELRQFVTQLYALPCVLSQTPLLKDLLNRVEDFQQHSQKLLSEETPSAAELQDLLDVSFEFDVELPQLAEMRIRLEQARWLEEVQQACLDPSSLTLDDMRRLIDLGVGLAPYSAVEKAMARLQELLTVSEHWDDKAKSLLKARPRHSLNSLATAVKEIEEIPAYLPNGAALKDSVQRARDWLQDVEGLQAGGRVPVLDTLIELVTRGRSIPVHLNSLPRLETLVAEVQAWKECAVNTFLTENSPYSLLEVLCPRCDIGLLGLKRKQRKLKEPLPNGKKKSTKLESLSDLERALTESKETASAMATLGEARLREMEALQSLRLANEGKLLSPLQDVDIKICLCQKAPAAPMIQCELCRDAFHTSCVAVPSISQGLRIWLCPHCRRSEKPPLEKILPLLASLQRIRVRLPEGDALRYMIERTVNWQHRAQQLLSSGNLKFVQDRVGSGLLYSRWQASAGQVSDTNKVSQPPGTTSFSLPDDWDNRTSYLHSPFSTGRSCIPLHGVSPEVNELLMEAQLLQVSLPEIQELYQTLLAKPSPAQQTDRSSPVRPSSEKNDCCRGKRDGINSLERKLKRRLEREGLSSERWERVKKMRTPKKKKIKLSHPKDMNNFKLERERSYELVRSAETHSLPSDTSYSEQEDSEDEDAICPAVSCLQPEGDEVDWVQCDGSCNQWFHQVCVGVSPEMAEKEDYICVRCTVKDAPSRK

Question: For `CC(C)c1c(-c2ccc3c(c2)OCCN3C)[nH]c2ncnn2c1=O` [Example 11-105, 5-(4-methyl-3,4-dihydro-2H-1,4-benzoxazin-7-yl)-6-(1-methylethyl)[1,2,4]triazolo[1,5-a]pyrimidin-7(4H)-one], which IC50 is on record?
Answer: 34.2 nM

Question: With `CC(C)c1c(-c2ccc(N3CCN(C)CC3)cc2)[nH]c2ncnn2c1=O` [Example 11-106, 6-(1-methylethyl)-5-[4-(4-methylpiperazin-1-yl)phenyl][1,2,4]triazolo[1,5-a]pyrimidin-7(4H)-one] as the compound, how does the IC50 read?
Answer: 16.6 nM

Question: How did the IC50 turn out when `CC(C)c1c(-c2cnn(C(C)(C)CO)c2)[nH]c2ncnn2c1=O` [Example 11-107, 5-[1-(2-hydroxy-1,1-dimethylethyl)-1H-pyrazol-4-yl]-6-(1-methylethyl)[1,2,4]triazolo[1,5-a]pyrimidin-7(4H)-one] was run?
Answer: 5.08 nM

Question: Which IC50 does the source give for `CC(C)c1c(-c2ccc(CN3CCOCC3)s2)[nH]c2ncnn2c1=O` [Example 11-108, 6-(1-methylethyl)-5-[5-(morpholin-4-ylmethyl)thiophen-2-yl][1,2,4]triazolo[1,5-a]pyrimidin-7(4H)-one] here?
Answer: 5.08 nM

Question: `CC(C)c1c(-c2cnn(C3CCC3)c2)[nH]c2ncnn2c1=O` [Example 11-109, 5-(1-cyclobutyl-1H-pyrazol-4-yl)-6-(1-methylethyl)[1,2,4]triazolo[1,5-a]pyrimidin-7(4H)-one] was tested. Which IC50 did it give?
Answer: 5.08 nM

Question: For `CC(C)c1c(-c2cnn(Cc3cccs3)c2)[nH]c2ncnn2c1=O` [Example 11-110, 6-(1-methylethyl)-5-[1-(thiophen-2-ylmethyl)-1H-pyrazol-4-yl][1,2,4]triazolo[1,5-a]pyrimidin-7(4H)-one], which IC50 is on record?
Answer: 6.7 nM

Question: How did the IC50 turn out when `CC(C)c1c(-c2cnn(CCO)c2)[nH]c2ncnn2c1=O` [Example 11-111, 5-[1-(2-hydroxyethyl)-1H-pyrazol-4-yl]-6-(1-methylethyl)[1,2,4]triazolo[1,5-a]pyrimidin-7(4H)-one] was run?
Answer: 11.7 nM

Question: With `CC(C)c1c(-c2cnn3c2CCC3)[nH]c2ncnn2c1=O` [Example 11-112, 5-(5,6-dihydro-4H-pyrrolo[1,2-b]pyrazol-3-yl)-6-(1-methylethyl)[1,2,4]triazolo[1,5-a]pyrimidin-7(4H)-one] as the compound, how does the IC50 read?
Answer: 51.2 nM

Question: `CC(C)c1c(-c2cnc(-c3ccc(F)cc3)o2)[nH]c2ncnn2c1=O` [Example 11-113, 5-[2-(4-fluorophenyl)-1,3-oxazol-5-yl]-6-(1-methylethyl)[1,2,4]triazolo[1,5-a]pyrimidin-7(4H)-one] was tested. Which IC50 did it give?
Answer: 17.3 nM

Question: For `Cc1c(-c2[nH]c3ncnn3c(=O)c2C(C)C)cnn1-c1ccccc1` [Example 11-114, 6-(1-methylethyl)-5-(5-methyl-1-phenyl-1H-pyrazol-4-yl)[1,2,4]triazolo[1,5-a]pyrimidin-7(4H)-one], which IC50 is on record?
Answer: 337 nM

Question: With `Cc1csc(-c2[nH]c3ncnn3c(=O)c2C(C)C)c1` [Example 11-115, 6-(1-methylethyl)-5-(4-methylthiophen-2-yl)[1,2,4]triazolo[1,5-a]pyrimidin-7(4H)-one] as the compound, how does the IC50 read?
Answer: 122 nM

Question: `Cc1nc(-c2ccccc2)sc1-c1[nH]c2ncnn2c(=O)c1C(C)C` [Example 11-116, 6-(1-methylethyl)-5-(4-methyl-2-phenyl-1,3-thiazol-5-yl)[1,2,4]triazolo[1,5-a]pyrimidin-7(4H)-one] was tested. Which IC50 did it give?
Answer: 444 nM

Question: For `Cc1ccc(-c2[nH]c3ncnn3c(=O)c2C(C)C)o1` [Example 11-117, 6-(1-methylethyl)-5-(5-methylfuran-2-yl)[1,2,4]triazolo[1,5-a]pyrimidin-7(4H)-one], which IC50 is on record?
Answer: 552 nM

Question: For `CC(C)c1c(-c2ccc(N3CCNCC3)cc2)[nH]c2ncnn2c1=O` [Example 11-118, 6-(1-methylethyl)-5-(4-piperazin-1-ylphenyl)[1,2,4]triazolo[1,5-a]pyrimidin-7(4H)-one], which IC50 is on record?
Answer: 9.79 nM

Question: `CC(C)c1c(-c2ccc(N)c(F)c2)[nH]c2ncnn2c1=O` [Example 11-119, 5-(4-amino-3-fluorophenyl)-6-(1-methylethyl)[1,2,4]triazolo[1,5-a]pyrimidin-7(4H)-one] was tested. Which IC50 did it give?
Answer: 27.5 nM

Question: `CC(C)c1c(-c2ccnc(C(F)(F)F)c2)[nH]c2ncnn2c1=O` [Example 11-120, 6-(1-methylethyl)-5-[2-(trifluoromethyl)pyridin-4-yl][1,2,4]triazolo[1,5-a]pyrimidin-7(4H)-one] was tested. Which IC50 did it give?
Answer: 17 nM

Question: How did the IC50 turn out when `CC(C)c1c(-c2cncc(C(C)(C)O)c2)[nH]c2ncnn2c1=O` [Example 11-121, 5-[5-(1-hydroxy-1-methylethyl)pyridin-3-yl]-6-(1-methylethyl)[1,2,4]triazolo[1,5-a]pyrimidin-7(4H)-one] was run?
Answer: 43.5 nM

Question: For `CC(C)c1c(-c2cn[nH]c2)[nH]c2ncnn2c1=O` [Example 11-122, 6-(1-methylethyl)-5-(1H-pyrazol-4-yl)[1,2,4]triazolo[1,5-a]pyrimidin-7(4H)-one], which IC50 is on record?
Answer: 13.3 nM

Question: Which IC50 does the source give for `CC(C)c1c(-c2ccc3c(c2)CC(=O)N3)[nH]c2ncnn2c1=O` [Example 11-123, 6-(1-methylethyl)-5-(2-oxo-2,3-dihydro-1H-indol-5-yl)[1,2,4]triazolo[1,5-a]pyrimidin-7(4H)-one] here?
Answer: 6.93 nM

Question: How did the IC50 turn out when `CC(C)c1c(-c2ccc(NS(=O)(=O)C3CC3)cc2)[nH]c2ncnn2c1=O` [Example 11-124, N-{4-[6-(1-methylethyl)-7-oxo-4,7-dihydro[1,2,4]triazolo[1,5-a]pyrimidin-5-yl]phenyl}cyclopropanesulfonamide] was run?
Answer: 8.76 nM

Question: For `CC(C)c1c(-c2cnn(C3CCCCO3)c2)[nH]c2ncnn2c1=O` (centres unmarked) [Example 11-125, 6-(1-methylethyl)-5-[1-(tetrahydro-2H-pyran-2-yl)-1H-pyrazol-4-yl][1,2,4]triazolo[1,5-a]pyrimidin-7(4H)-one], which IC50 is on record?
Answer: 7.36 nM

Question: How did the IC50 turn out when `CC(C)c1c(-c2ccc(N3CCCCC3)nc2)[nH]c2ncnn2c1=O` [Example 11-126, 6-(1-methylethyl)-5-(6-piperidin-1-ylpyridin-3-yl)[1,2,4]triazolo[1,5-a]pyrimidin-7(4H)-one] was run?
Answer: 10.4 nM

Question: For `CC(C)c1c(-c2ccc(N3CCOCC3)nc2)[nH]c2ncnn2c1=O` [Example 11-127, 6-(1-methylethyl)-5-(6-morpholin-4-ylpyridin-3-yl)[1,2,4]triazolo[1,5-a]pyrimidin-7(4H)-one], which IC50 is on record?
Answer: 11.6 nM

Question: Which IC50 does the source give for `CC(C)c1c(-c2ccc(-n3cccn3)nc2)[nH]c2ncnn2c1=O` [Example 11-128, 6-(1-methylethyl)-5-[6-(1H-pyrazol-1-yl)pyridin-3-yl][1,2,4]triazolo[1,5-a]pyrimidin-7(4H)-one] here?
Answer: 12.3 nM

Question: How did the IC50 turn out when `CC(C)c1c(-c2ccc(F)nc2)[nH]c2ncnn2c1=O` [Example 11-129, 5-(6-fluoropyridin-3-yl)-6-(1-methylethyl)[1,2,4]triazolo[1,5-a]pyrimidin-7(4H)-one] was run?
Answer: 66.8 nM

Question: How did the IC50 turn out when `CC(C)c1c(-c2ccc(CO)nc2)[nH]c2ncnn2c1=O` [Example 11-130, 5-[6-(hydroxymethyl)pyridin-3-yl]-6-(1-methylethyl)[1,2,4]triazolo[1,5-a]pyrimidin-7(4H)-one] was run?
Answer: 54.5 nM

Question: How did the IC50 turn out when `CC(C)c1c(-c2ccc(C#N)nc2)[nH]c2ncnn2c1=O` [Example 11-131, 5-[6-(1-methylethyl)-7-oxo-4,7-dihydro[1,2,4]triazolo[1,5-a]pyrimidin-5-yl]pyridine-2-carbonitrile] was run?
Answer: 48.7 nM

Question: With `CC(C)c1c(-c2ccc(C(F)(F)F)nc2)[nH]c2ncnn2c1=O` [Example 11-132, 6-(1-methylethyl)-5-[6-(trifluoromethyl)pyridin-3-yl][1,2,4]triazolo[1,5-a]pyrimidin-7(4H)-one] as the compound, how does the IC50 read?
Answer: 41.7 nM

Question: How did the IC50 turn out when `CC(C)c1c(-c2ccc(C3CC3)nc2)[nH]c2ncnn2c1=O` [Example 11-133, 5-(6-cyclopropylpyridin-3-yl)-6-(1-methylethyl)[1,2,4]triazolo[1,5-a]pyrimidin-7(4H)-one] was run?
Answer: 44.4 nM

Question: For `CC(C)c1c(-c2ccn(C(C)(C)C)c2)[nH]c2ncnn2c1=O` [Example 11-134, 5-(1-tert-butyl-1H-pyrrol-3-yl)-6-(1-methylethyl)[1,2,4]triazolo[1,5-a]pyrimidin-7(4H)-one], which IC50 is on record?
Answer: 5.08 nM

Question: How did the IC50 turn out when `CC(C)c1c(-c2cc(C(C)(C)C)n[nH]2)[nH]c2ncnn2c1=O` [Example 11-135, 5-(3-tert-butyl-1H-pyrazol-5-yl)-6-(1-methylethyl)[1,2,4]triazolo[1,5-a]pyrimidin-7(4H)-one] was run?
Answer: 61 nM

Question: How did the IC50 turn out when `CC(C)c1c(-c2csc(-c3ccccc3)n2)[nH]c2ncnn2c1=O` [Example 11-136, 6-(1-methylethyl)-5-(2-phenyl-1,3-thiazol-4-yl)[1,2,4]triazolo[1,5-a]pyrimidin-7(4H)-one] was run?
Answer: 469 nM

Question: For `CC(C)c1c(-c2csc(-n3cccn3)n2)[nH]c2ncnn2c1=O` [Example 11-137, 6-(1-methylethyl)-5-[2-(1H-pyrazol-1-yl)-1,3-thiazol-4-yl][1,2,4]triazolo[1,5-a]pyrimidin-7(4H)-one], which IC50 is on record?
Answer: 41.9 nM

Question: For `CC(C)c1c(-c2ccsc2)[nH]c2ncnn2c1=O` [Example 11-138, 6-(1-methylethyl)-5-thiophen-3-yl[1,2,4]triazolo[1,5-a]pyrimidin-7(4H)-one], which IC50 is on record?
Answer: 657 nM

Question: With `CC(C)c1c(-c2cnco2)[nH]c2ncnn2c1=O` [Example 11-139, 6-(1-methylethyl)-5-(1,3-oxazol-5-yl)[1,2,4]triazolo[1,5-a]pyrimidin-7(4H)-one] as the compound, how does the IC50 read?
Answer: 193 nM

Question: For `CC(C)c1c(-c2csc(-n3cccc3)n2)[nH]c2ncnn2c1=O` [Example 11-140, 6-(1-methylethyl)-5-[2-(1H-pyrrol-1-yl)-1,3-thiazol-4-yl][1,2,4]triazolo[1,5-a]pyrimidin-7(4H)-one], which IC50 is on record?
Answer: 124 nM

Question: Which IC50 does the source give for `CC(C)c1csc(-c2[nH]c3ncnn3c(=O)c2C(C)C)c1` [Example 11-141, 6-(1-methylethyl)-5-[4-(1-methylethyl)thiophen-2-yl][1,2,4]triazolo[1,5-a]pyrimidin-7(4H)-one] here?
Answer: 59.8 nM

Question: For `CC(C)c1c(-c2cc(C3CCC3)cs2)[nH]c2ncnn2c1=O` [Example 11-142, 5-(4-cyclobutylthiophen-2-yl)-6-(1-methylethyl)[1,2,4]triazolo[1,5-a]pyrimidin-7(4H)-one], which IC50 is on record?
Answer: 112 nM
